Data published in US11485728B2, “Small molecules for the treatment of autoimmune diseases and cancer” (Athos Therapeutics, Inc., priority 2020, dated 2022).

Legend:
[1] = In-vitro half-life in mouse liver microsomes; format: in vitro ADME; conditions: Mouse liver microsomes 0.5 mg/mL; 1 μg/mL drug; NRS; read-out: Metabolic Half-life
In short: (§1)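 Compound at 1 μg/mL final was incubated with 0.5 mg/mL liver microsomes plus NADPH regenerating system at 37° C, sampled in duplicate at 0–60 min. Remaining parent was measured by LC-MS/MS, and half-life was calculated from first-order log-linear regression of % remaining versus time.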

[2] = target: T1, CYP2D6 (Homo sapiens, UniProt P10635); test: CYP-direct inhibition, CYP2D6; format: in vitro ADME; conditions: human liver microsome; substrate dextromethorphan; read-out: IC50 CYP-2D6
T1 construct: from tissue; host or cells: pooled human liver microsomes
T1 sequence (P10635 whole entry): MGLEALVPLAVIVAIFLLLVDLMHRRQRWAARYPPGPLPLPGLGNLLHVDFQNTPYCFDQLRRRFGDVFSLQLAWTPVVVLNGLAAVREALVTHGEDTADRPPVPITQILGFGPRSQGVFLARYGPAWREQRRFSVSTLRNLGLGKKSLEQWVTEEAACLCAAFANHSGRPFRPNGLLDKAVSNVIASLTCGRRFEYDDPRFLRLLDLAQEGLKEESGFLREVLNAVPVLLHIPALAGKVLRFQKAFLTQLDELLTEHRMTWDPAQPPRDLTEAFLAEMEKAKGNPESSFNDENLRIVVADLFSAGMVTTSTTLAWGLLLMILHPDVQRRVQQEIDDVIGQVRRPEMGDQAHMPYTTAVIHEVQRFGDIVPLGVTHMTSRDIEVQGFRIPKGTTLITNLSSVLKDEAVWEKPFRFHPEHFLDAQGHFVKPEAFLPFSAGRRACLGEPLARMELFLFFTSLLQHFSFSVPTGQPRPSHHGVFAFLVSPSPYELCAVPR
Description: (§2) Many drugs inhibit cytochrome P450 enzymes to cause clinically significant changes in the pharmacokinetics of other drugs. In vitro cytochrome P450 inhibition, can provide crucial information in evaluating potential clinical drug-drug interactions and is useful for focusing in vivo tests to areas of concern. The cytochrome P450 inhibition assay was developed by preparing a working cocktail solution consisting of six probe substrates 10 μM ethoxy-resorufin (CYP1A2), 100 μM rosiglitazone (CYP2C8), 50 μM diclofenac (CYP2C9), 300 μM S-mephenytoin (CYP2C19), 50 μM dextromethorphan (CYP2D6), and 20 μM midazolam (CYP3A4). A mixture solution consists of 140 uL of 0.286 mg/mL of pooled human liver microsome working solution and 20 uL working solutions of test articles, standard control inhibitors, or positive control placebo and 20 uL of substrate cocktail mixture working solution was prepared. The mixture solution was pre-warm in a gentle shaking bath at 37±2° C. for 5 minutes. The enzymatic reaction started by adding 20 uL of NRS working solution to the mixture solution and incubated for 10 minutes at 37±2° C. To stop the reaction, an addition of 400 μL cold stop solution (acetonitrile containing 50 ng/mL Tolbutamide as an internal standard (I.Std.) was added to the mixture solution. The final concentration of test article, inhibitors, substrates, and cofactors are noted in Table 0.1 below. Two individual samples were prepared for each test compound. The extracted samples were vortexed and then centrifuged at 4500 rpm for 7 minutes using Eppendorf Centrifuge 5910R. 200 uL of supernatant was diluting with 200 uL of 50% Methanol into 96-DW plate for LC/MS/MS analysis
(§3) Concentration-response plots are used to determine the effects of an inhibitor on an enzymatic reaction. A typical concentration-response plot provides fractional activity (Y axis) is plotted as a function of log inhibitor concentration (X axis). The data are fitted using a standard Sigmoidal dose-response equation which is also called a […] logistic equation. The concentration of compound that results in 50% inhibition of maximal activity is termed as the IC50 (inhibitor concentration yielding 50% inhibition). IC50 value is calculated using Prism GraphPad software, version 9. […].
(§4) Cytochrome P450 inhibition of a drug is a key factor in determining pharmacokinetic drug-drug interactions. The objective of this study was to evaluate the inhibition potential of G9a inhibitors on six (6) major human cytochrome P450 enzymes, including CYP1A2, CYP2C8, CYP2C9, CYP2C19, CYP2D6, and CYP3A4. Inhibition was determined by using a substrate cocktail and analyzing the rate of specific metabolites formation. The cytochrome P450 inhibition assay was developed using a cocktail consisting of six (6) probe substrates ethoxy-resorufin (CYP1A2), rosiglitazone (CYP2C8), diclofenac (CYP2C9), S-mephenytoin (CYP2C19), dextromethorphan (CYP2D6), and midazolam (CYP3A4). The cocktail was incubated in human liver microsome with NADPH regenerating system (NRS) in a shaking bath at 37±2° C. The formation of specific metabolites was monitored by LC/MS/MS. Test compound was added to the cocktail-liver microsome mixture at varying concentrations and its effect on cytochrome P450 activity was determined by analyzing the rate of specific metabolite formation. The percent inhibition was calculated and plotted with reference to the concentration, and the IC50 value for inhibition was derived by fitting the data with a using log(inhibitor) vs. normalized response with variable slope least squares fit by Graphpad Prism® software. […].

[3] = target: T2, CYP2C9 (Homo sapiens, UniProt P11712); test: CYP-direct inhibition, CYP2C9; format: in vitro ADME
T2 construct: from tissue; host or cells: pooled human liver microsomes
T2 sequence (P11712 whole entry): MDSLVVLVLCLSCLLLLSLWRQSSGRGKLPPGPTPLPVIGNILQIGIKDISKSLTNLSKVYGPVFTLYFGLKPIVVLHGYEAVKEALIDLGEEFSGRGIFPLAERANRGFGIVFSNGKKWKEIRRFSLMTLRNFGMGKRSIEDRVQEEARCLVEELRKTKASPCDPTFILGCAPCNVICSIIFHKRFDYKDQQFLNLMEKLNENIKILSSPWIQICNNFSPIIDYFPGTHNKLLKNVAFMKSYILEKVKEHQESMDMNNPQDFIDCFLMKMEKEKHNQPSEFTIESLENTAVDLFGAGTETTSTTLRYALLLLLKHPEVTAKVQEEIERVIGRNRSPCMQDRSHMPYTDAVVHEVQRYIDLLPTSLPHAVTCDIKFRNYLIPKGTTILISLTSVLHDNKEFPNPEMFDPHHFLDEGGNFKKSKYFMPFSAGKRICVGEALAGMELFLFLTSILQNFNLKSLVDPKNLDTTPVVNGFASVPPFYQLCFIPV
Description: as §2, §3, §4

[4] = target: T3, CYP3A4 (Homo sapiens, UniProt P08684); test: CYP-direct inhibition, CYP3A4; format: in vitro ADME
T3 construct: from tissue; host or cells: pooled human liver microsomes
T3 sequence (P08684 whole entry): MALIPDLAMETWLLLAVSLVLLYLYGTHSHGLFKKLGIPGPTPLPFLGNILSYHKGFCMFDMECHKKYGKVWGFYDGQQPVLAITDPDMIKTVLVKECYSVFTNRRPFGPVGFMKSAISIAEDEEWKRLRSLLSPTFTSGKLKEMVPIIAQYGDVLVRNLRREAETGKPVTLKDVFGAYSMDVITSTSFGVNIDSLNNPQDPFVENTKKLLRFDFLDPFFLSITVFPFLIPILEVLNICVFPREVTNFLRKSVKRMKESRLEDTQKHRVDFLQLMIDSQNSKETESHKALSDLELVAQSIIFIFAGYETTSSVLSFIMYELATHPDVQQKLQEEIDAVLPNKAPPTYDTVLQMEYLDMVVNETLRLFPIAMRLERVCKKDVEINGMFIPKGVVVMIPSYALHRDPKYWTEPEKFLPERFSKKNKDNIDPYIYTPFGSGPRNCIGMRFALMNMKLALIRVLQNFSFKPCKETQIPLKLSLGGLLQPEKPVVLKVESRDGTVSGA
Description: as §2, §3, §4

[5] = target: T4, CYP2C19 (Homo sapiens, UniProt P33261); test: CYP-direct inhibition, CYP2C19; format: in vitro ADME
T4 construct: from tissue; host or cells: pooled human liver microsomes
T4 sequence (P33261 whole entry): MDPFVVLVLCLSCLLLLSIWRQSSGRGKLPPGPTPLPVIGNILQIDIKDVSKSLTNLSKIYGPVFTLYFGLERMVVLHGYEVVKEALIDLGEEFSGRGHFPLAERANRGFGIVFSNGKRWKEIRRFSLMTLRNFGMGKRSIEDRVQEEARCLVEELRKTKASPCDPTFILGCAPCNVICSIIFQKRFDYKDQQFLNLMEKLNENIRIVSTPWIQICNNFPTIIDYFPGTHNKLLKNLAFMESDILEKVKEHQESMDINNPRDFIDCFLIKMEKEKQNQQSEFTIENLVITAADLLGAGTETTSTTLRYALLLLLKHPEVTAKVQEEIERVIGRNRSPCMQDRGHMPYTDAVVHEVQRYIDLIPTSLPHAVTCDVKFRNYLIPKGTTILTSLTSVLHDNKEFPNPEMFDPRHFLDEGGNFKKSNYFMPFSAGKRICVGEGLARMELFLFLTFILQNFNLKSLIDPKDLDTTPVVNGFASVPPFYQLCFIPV
Description: as §2, §3, §4

[6] = PAMPA permeability; conditions: PAMPA, 5 hours at RT
Description: Parallel artificial membrane permeability (PAMPA) assay is a non-cell based assay designed to predict in vivo biological membrane permeability of drugs in early stage of drug discovery. […] The Corning Gentest Pre-coated PAMPA plate system was designed by 96-well insert system with a 0.45 μm PVDF (polyvinylidene fluoride) filter plate which has been pre-coated with structured tri-layers of phospholipids (lipid/oil/lipid) and a matched receiver microplate.
Donor solutions of test compounds (300 μL, 20 μM in PBS/MeOH 90:10) were added to each well of the donor plate. 200 μL of PBS/MeOH 90:10 was added to each well of the acceptor plate. The acceptor plate was coupled with the donor plate and incubated for 5 hours at room temperature (RT) without agitation. In each plate, compounds were tested in triplicate. At the end of the incubation, drug concentration in the initial donor solution, acceptor and the donor wells were determined using LC/MS/MS. A five (5) points standard curve from 0.1 to 1000 nM for each test compound were prepared. Analyte samples were diluted to within standard curve concentration with ACN/H2O 50:50 prior analysis.
All samples were analyzed by electrospray ionization (ESI) liquid chromatograph/mass spectrometry (LC/MS) system utilizing Sciex 5500 quadropule ion trap (Qtrap) mass spectrometry with Shidmazu Nexera X2 UHPLC. The LC-MS/MS instrument monitored each of the test compound in the study based of their respective mass-to-charge (m/z) transitions and MS parameters. Chromatographic separation was achieved on Phenomenex Luna C18 column (50×2.0 mm, 3 μm particle size) by using a gradient elution: mobile phase A contains 0.1% formic acid in water and mobile phase B contains 0.1% formic acid in acetonitrile; A/B (99:1) from 0 to 1 minutes; to A/B (1:99) from 1 to 4 minutes; A/B (1:99) from 4 to 8 minutes; to A/B (99:1) from 8 to 8.20 minutes; A/B (99:1) from 8.2 to 9 minutes. The flow rate was 0.4 mL/min and the column temperature was maintained at 35° C. and autosampler temperature at 4° C. For detection, the electrospray ionization operated in the positive mode using multiple reaction monitoring (MRM).
Data acquisition, and peak integrations were obtained by Analyst® Version 1.7.1 (Sciex) operating with Windows® (Microsoft). The standard curve regressions and sample concentrations were generated and calculated by Analyst®. Concentrations in the sample solutions were determined based on the measured peak area ratios from the response of the analyte to the internal standard with reference to the standard calibration curve. All sample calculations were calculated using a linear regression with 1/x^2 weighting (where x is the concentration of given calibration standard level).
Permeability of the test compounds was calculated using the following formula:
The permeability of compounds was evaluated with the parallel artificial membrane permeation assay (PAMPA) as an in vivo model of passive diffusion across a porous filter coated with a lipid/oil/lipid tri-layer artificial membrane. […] Donor solutions of test compounds (300 μL, 20 μM in PBS/MeOH 90:10) were added to each well of the donor plate. 200 μL of PBS/MeOH 90:10 was added to each well of the acceptor plate. The acceptor plate was coupled with the donor plate and incubated for 5 hours at room temperature (RT) without agitation. In each plate, compounds were tested in triplicate. At the end of the incubation, drug concentration in the initial donor solution, acceptor and the donor wells were determined using LC/MS/MS. Permeability of test compounds was calculated based on the formula described in the General Procedures above. The PAMPA permeability classification criteria are categorized into three (3) classes with a high (Pe≥1.5×10−6 cm/s), intermediate (5.5×10−8<Pe<1.5×10−6 cm/s), and low (Pe<5.5×10−8 cm/s) permeability.

[7] = In-vitro half-life in human liver microsomes; format: in vitro ADME; conditions: Human liver microsomes 0.5 mg/mL; 1 μg/mL drug; NRS; read-out: Metabolic Half-life
In short: as §1

[8] = PAMPA permeability Classification, 20 μM donor
[9] = Permeability, Pe, 20 μM donor in PBS/MeOH 90:10

half-life at 1 μg/mL [1] [min] | IC50 [2] [µM] | IC50 [3] [µM] | IC50 [4] [µM] | IC50 [5] [µM] | Papp at 5 h, 20 μM [6, 8] [×10⁻⁶ cm/s] | Papp at 5 h, 20 μM [6, 9] [×10⁻⁶ cm/s] | half-life at 1 μg/mL [7] [min] | SMILES
> 60 | 24.8 | > 100 | > 100 | > 100 | < 0.055 | 0.0476 | > 60 | COc1cc2c(NC3CCOCC3)nc(N3CCCC3)nc2cc1OCCCN1CCCC1 [Compound 164, 6-methoxy-2-(pyrrolidin-1-yl)-7-(3-(pyrrolidin-1-yl)propoxy)-N-(tetrahydro-2H-pyran-4-yl)quinazolin-4-amine]
> 60 | 23 | > 100 | > 100 | > 100 | 0.055 to 1.5 | 0.0754 | > 60 | COc1cc2c(NC3CCOCC3)nc(N3CCC3)nc2cc1OCCCN1CCCC1 [Compound 174, 2-(azetidin-1-yl)-6-methoxy-7-(3-(pyrrolidin-1-yl)propoxy)-N-(tetrahydro-2H-pyran-4-yl)quinazolin-4-amine]
> 60 | > 100 | > 100 | > 100 | > 100 | 0.055 to 1.5 | 0.238 | > 60 | COc1cc2c(NC3CCOCC3)nc(N3CCOCC3)nc2cc1OCCCN1CCCC1 [Compound 195, 6-methoxy-2-morpholino-7-(3-(pyrrolidin-1-yl)propoxy)-N-(tetrahydro-2H-pyran-4-yl)quinazolin-4-amine]
> 60 | 84.8 | > 100 | > 100 | > 100 | < 0.055 | 0.035 | > 60 | COc1cc2c(NC3CCOCC3)nc(N3CCS(=O)(=O)CC3)nc2cc1OCCCN1CCCC1 [Compound 196, 4-(6-methoxy-7-(3-(pyrrolidin-1-yl)propoxy)-4-((tetrahydro-2H-pyran-4-yl)amino)quinazolin-2-yl)thiomorpholine 1,1-dioxide]
> 60 | 77.9 | > 100 | > 100 | > 100 | < 0.055 | 0.000285 | > 60 | COc1cc2c(NC3CCN(C(C)C)CC3)nc(N3CCC3)nc2cc1OCCCN1CCCC1 [Compound 234, 2-(azetidin-1-yl)-N-(1-isopropylpiperidin-4-yl)-6-methoxy-7-(3-(pyrrolidin-1-yl)propoxy)quinazolin-4-amine]
> 60 | > 100 | > 100 | > 100 | > 100 | < 0.055 | 0.0046 | > 60 | COc1cc2c(NC3CCN(C(C)C)CC3)nc(C#N)nc2cc1OCCCN1CCCC1 [Compound 235, 4-((1-isopropylpiperidin-4-yl)amino)-6-methoxy-7-(3-(pyrrolidin-1-yl)propoxy)quinazoline-2-carbonitrile]
22.8 | > 100 | > 100 | > 100 | > 100 | < 0.055 | 0.0299 | > 60 | COc1cc2c(NC3CCOCC3)nc(N3CCN(C)CC3)nc2cc1OCCCN1CCCC1 [Compound 236, 6-methoxy-2-(4-methylpiperazin-1-yl)-7-(3-(pyrrolidin-1-yl)propoxy)-N-(tetrahydro-2H-pyran-4-yl)quinazolin-4-amine]
26.4 | 86.2 | > 100 | > 100 | > 100 | < 0.055 | 0.00431 | > 60 | COc1cc2c(NC3CCOCC3)nc(N3CCCN(C)CC3)nc2cc1OCCCN1CCCC1 [Compound 237, 6-methoxy-2-(4-methyl-1,4-diazepan-1-yl)-7-(3-(pyrrolidin-1-yl)propoxy)-N-(tetrahydro-2H-pyran-4-yl)quinazolin-4-amine]
> 60 | 55.9 | > 100 | > 100 | > 100 | 0.055 to 1.5 | 1.32 | 37.8 | COc1cc2c(NC3CCS(=O)(=O)CC3)nc(N3CCC(F)(F)CC3)nc2cc1C#CCN1CCCC1 [Compound 248, 4-((2-(4,4-difluoropiperidin-1-yl)-6-methoxy-7-(3-(pyrrolidin-1-yl)prop-1-yn-1-yl)quinazolin-4-yl)amino)tetrahydro-2H-thiopyran 1,1-dioxide]
